Measurements taken from patent US20130045890A1, “TEST FOR MALE FERTILITY” (Rigshospitalet Copenhagen University Hospital, priority 2010, published 2013).
Where “and” joins values, the source holds several entries; their conditions need not be identical. Equal values may be shown once. Entries after “also recorded” stand apart in the source; their conditions may differ.

Legend:
human spermatozoa [1] = test: Intracellular free calcium ([Ca2+]i) by single cell fura-2 imaging in human spermatozoa; assay type: cell-based; conditions: for effect of non-genomic VDR antagonist pretreatment on the calcium response to 1,25(OH)2D3: pretreatment 1-40 μM
Description: The intracellular free calcium concentration ([Ca2+]i) was measured in human spermatozoa from 12 normal men. Freshly delivered semen samples went through percoll density gradient centrifugation to optimize the number of spermatozoa expressing VDR and the metabolising enzymes. […] Subsequently 80 μl sperm content were diluted in 920 μl Krebs-Ringer buffer and were loaded on polynysine-coated chambers to minimize movement of the vital spermatozoa (Lab-Tek; Nalge Nunc International, USA).
Excitation was obtained by a Polychrome V illuminator from Till Photonics (Germany) and images were acquired using a Cool Snap CCD camera (Photometrics, USA) from Robert Scientific (Malaysia).
After background subtraction, ratio images were formed using MetaFluor software.
Semen samples were separated by percoll density gradient centrifugation to ensure viable and motile spermatozoa and resuspended in capacitating media for 1.5 hours. Afterwards, loaded with 3 μM of the fluorescent probe (intracellular calcium binding) fura-2/AM (Invitrogen, USA) for 30 min, centrifuged (10 min at 300 g) and washed with Krebs-Ringer buffer (120 mM NaCl, 15 mM NaHCO3, 5 mM KCl, 1 mM CaCl2, 5 mM Na2HPO4, 1 mM MgCl2 pH 7.3). […] Subsequently, 80 μl of the sperm sample was diluted in 920 μl Krebs-Ringer buffer and loaded on polylysine-coated chambers to minimize movement of the spermatozoa (Lab-Tek; Nalge Nunc International, USA). […] Excitation was obtained by a Polychrome Villuminator from Till Photonics (Germany) and images were acquired using a Cool Snap CCD camera (Photometrics, USA) from Robert Scientific (Malaysia). […] After background subtraction, ratio images were formed using MetaFluor software.
All experiments started by using low magnification to ensure visibility of several spermatozoa simultaneously. […] All measurements of [Ca2+]i were based upon evaluation of at least three spermatozoa simultaneously (see exact number in figure legends), and were repeated in at least three separate experiments. We used 10 different semen donors to ensure that all experiments were reproduced on semen samples from at least two different men.

human spermatozoa [2] = test: Induction of sperm motility (ABC motility) in semen samples in vitro; conditions: for sperm motility (ABC) in young normal men: 1 nM 1,25(OH)2D3, p=0.01; for sperm motility in infertile/subfertile men: 1 nM 1,25(OH)2D3, p=0.80
Description: The preparation was placed on the heating stage of a microscope at 37° C. and immediately examined at x400 magnification counting 200 spermatozoa. The sperm were classified as progressive motile (WHO class A+B), non-progressive motile (class C) or immotile (class D). The motility counting was repeated on a second aliquot of 10 μl well-mixed semen.
The participants produced a semen sample by masturbation. Self-reported information of duration of ejaculation abstinence was obtained. Trained technicians conducted semen analysis Semen volume was estimated by weighing. For sperm motility assessment, duplicates of 10 μl of well-mixed semen were placed on a glass slide, examined on a heating stage kept at 37° C., under a microscope at ×400 magnification, and spermatozoa were classified as progressive motile (WHO class A+B), non-progressive motile (class C) or immotile (class D). The average of the two motility assessments was used. For the assessment of the sperm concentration the samples were diluted in a solution of 0.6 mol/l NaHCO3 and 0.4% (v/v) formaldehyde in distilled water, and subsequently assessed using Bürker-Türk haemocytometer. Only spermatozoa with tails were counted. Finally, smears were prepared, Papanicolaou stained and spermatozoa morphology assessed according to strict criteria.
Their semen samples were assessed as described above. […] Motility assessment was conducted in 17 samples (in duplicates) under non-capacitating conditions (in their seminal plasma), and 3 samples were also analyzed in capacitating conditions. 7 consecutively included men were used to investigate a dose-response relationship between VD and sperm motility.

human spermatozoa [3] = test: Acrosome reaction of motile spermatozoa (Pisum sativum agglutinin-FITC staining); assay type: cell-based
Description: Acrosome status was assessed according to a modified version of the method described by Cross et al. 1986. […] . When more than half the head of a spermatozoon was brightly and uniformly fluorescent, the acrosome was considered to be intact. Spermatozoa without fluorescence or with a fluorescing band limited to the equatorial segment were considered to be acrosome-reacted. Spermatozoa with a fluorescing band limited to the equatorial segment were named eq-AR. The person assessing the slides was blinded to the treatment of the sample.

[4] = 1,25(OH)2D3 after pretreatment with nifedipine 10 μM
[5] = higher 1,25(OH)2D3 concentrations

## C=C1/C(=C\C=C2/CCC[C@]3(C)[C@@H]([C@H](C)CCCC(C)(C)O)CC[C@@H]23)C[C@@H](O)C[C@@H]1O [1,25(OH)2D3, 1,25-dihydroxyvitamin D3]
Human spermatozoa [1]
  effect of pre-treatment with 1,25(OH)2D3 on the calcium effect of progesterone: could not be abrogated
Human spermatozoa [1]; 1 nM 1,25(OH)2D3
  maximum amplitude of the calcium increase, higher than baseline calcium level: 5-10 fold
Human spermatozoa [1]; 1 nM 1,25(OH)2D3, versus capacitating media
  calcium response in non-capacitating media: lower amplitude
Human spermatozoa [1]; 1,25(OH)2D3 (1 nM elsewhere in the source)
  amplitude relative to the amplitude elicited by 10 μM progesterone: 40% and 40-80%
Human spermatozoa [1]; 1,25(OH)2D3, printed range 50 μM-10 μM, 100 μM-10 μM
  effect on intracellular calcium: induced a rapid increase in intracellular calcium
Human spermatozoa [1]; 1,25(OH)2D3 added to motile spermatozoa, calcium containing medium
  increase in intracellular calcium from baseline: 5-10 fold
Human spermatozoa [1]; [4]
  length of repolarisation phase: 4 min
  maximum amplitude of calcium increase, higher than baseline: 7 fold
Human spermatozoa [1]; 1,25(OH)2D3 concentration
  threshold for the observed all-or-nothing calcium response: 10 to 50 µM
Human spermatozoa [1]; <10 nM 1,25(OH)2D3
  duration of plateau phase: up to 50 sec
Human spermatozoa [1]; after addition of 1,25(OH)2D3
  start of the calcium increase in the neck region: ≤ 5 s
Human spermatozoa [1]; calcium free media, 5 μM EGTA
  increase in [Ca2+]i in calcium free media with EGTA (words): Neither, 1,25(OH)2D3 nor progesterone were able to induce an increase in intracellular calcium; also recorded: could not induce an increase in [Ca2+]i
Human spermatozoa [1]; [5]
  dependence of amplitude on concentration: did not seem to increase markedly with higher concentration; also recorded: did not increase with higher 1,25(OH)2D3 concentrations
  duration of plateau phase: 50 to 300 s
Human spermatozoa [1]; potentially contaminated [Ca2+]<5 uM
  calcium response in calcium free media without EGTA: marked response; also recorded: increased intracellular calcium rapidly
Human spermatozoa [2]
  sperm motility (ABC) in young normal men: increased significantly; also recorded: modest increase in sperm motility
  sperm motility in infertile/subfertile men: did not increase; also recorded: no increase in sperm motility
Human spermatozoa [2]; listed as calcitriol
  sperm motility (ABC) in young normal men: significant increase in normal men
  sperm motility in infertile/subfertile men: unable to increase motility in infertile men
Human spermatozoa [2]; listed as activated VD
  sperm motility in infertile/subfertile men: did not increase in sperm motility
Human spermatozoa [2]; 1,25(OH)2D3 10-14M to 10^-9M, dose-response, 7 men
  increase in median sperm motility (ABC): 2-7%
Human spermatozoa [2]; 1,25(OH)2D3 10^-5M
  median decrease in sperm motility compared with control: 15%
Human spermatozoa [2]; 1,25(OH)2D3 10^-9M, p=0.006
  median increase in sperm motility (ABC): 7%
Human spermatozoa [2]; 1,25(OH)2D3 concentrations above 10^-7M
  sperm motility: decreased motility compared with control
Human spermatozoa [2]; 10^-9M 1,25(OH)2D3, 30 min, room temperature, 17 men, p=0.010
  increase in mean sperm motility: 2.9%
Human spermatozoa [3]; 1,25(OH)2D3 10^-9M (control 4.7%), p=0.214
  median percentage of spermatozoa with an equatorial band (eq. AR): 5.3%
Human spermatozoa [3]; 1,25(OH)2D3 10^-9M, capacitating media (control 12%)
  median percentage of acrosome reacted spermatozoa: 21%
Human spermatozoa [3]; 1,25(OH)2D3 10^-9M, capacitating media, p=0.024
  average increase in acrosome reacted spermatozoa: 6%
Human spermatozoa [3]; NaCl, 6 men, VD treated (control 3.7%)
  acrosome reacted spermatozoa in non-capacitating conditions: 4.2%

## C=C1/C(=C\C=C2/CCC[C@]3(C)[C@@H]([C@H](C)CCCC(C)(C)O)CC[C@@H]23)C[C@@H](O)C[C@H]1O [1β, 25(OH)2D3]
Human spermatozoa [1]; 1 nM calcitriol
  effect of non-genomic VDR antagonist pretreatment on the calcium response to 1,25(OH)2D3: completely blocked; also recorded: abrogated the response to 1,25(OH)2D3 completely
Human spermatozoa [1]; 1 nM calcitriol, listed as 1β,25(OH) 2D3
  effect of non-genomic VDR antagonist pretreatment on the calcium response to 1,25(OH)2D3: blocked completely

## C=C1CC[C@H](O)C/C1=C/C=C1\CCC[C@]2(C)[C@@H]([C@H](C)CCCC(C)(C)O)CC[C@@H]12 [25-OH D3, 25-hydroxycholecalciferol]
Human spermatozoa [1]; 25-OH D3 up to 100 nM, normal media
  effect on intracellular calcium: no effect on intracellular calcium levels
Human spermatozoa [1]; 25-OH D3 up to 100 nM, normal media, listed as 25-0H D3
  effect on intracellular calcium: unable to elicit an increase in [Ca2+]i

## COc1ccc2c(c1)CC[C@@H]1[C@@H]2CC[C@]2(C)[C@@H](NCCCCCCN3C(=O)C=CC3=O)CC[C@@H]12 [U73122, 1-[6-[[17fi-3-methoxyestra-1,3,5(10)-trien-17-yl]amino]hexyl]-1H-pyrrole-2,5-dione]
Human spermatozoa [1]; 2 μM U73122, no concentration
  effect on the calcium response to 1,25(OH)2D3: unable to induce a rapid increase in [Ca2+]i; also recorded: caused a delayed and diminished response to 1,25(OH)2D3
Human spermatozoa [1]; 5 μM U73122
  effect on the rapid calcium increase elicited with 1 nM 1,25(OH)2D3: delayed in these spermatozoa and the amplitude was smaller or absent
Human spermatozoa [1]; 5 μM U73122, normal calcium containing media
  spermatozoa that remained low and stable in intracellular calcium: 10-20%
Human spermatozoa [1]; 10 μM U73122
  increase of baseline [Ca2+]i: more than 5 fold
  spermatozoa that increased their baseline [Ca2+]i: > 80%
Human spermatozoa [1]; U73122
  effect of PLC inhibition on the calcium effect of progesterone: unable to abrogate the effect of progesterone

## C=C1/C(=C\C=C2/CCC[C@]3(C)[C@@H]([C@H](C)/C=C/[C@@H](O)C4(C(=O)OCCCC)CC4)CC[C@@H]23)C[C@@H](O)C[C@@H]1O [ZK159222]
Human spermatozoa [1]; ZK159222 0.1-100 μM, 1 nM calcitriol
  effect of nuclear VDR antagonist on the calcium response to 1,25(OH)2D3: could not be abrogated; also recorded: unable to abrogate or suppress the effect of 1,25(OH)2D3 treatment

## C[C@H](CCC(=O)O)C[C@H](C)C[C@H](C)C(=O)/C=C(\O)[C@H](C)C[C@H](C)C/C=C/[C@@H](C)[C@@H](O)[C@@H](C)[C@@H](O)C[C@@H]1CC[C@@](C)([C@H]2CC[C@@](C)([C@@H](C)O)O2)O1 [ionomycin]
Human spermatozoa [1]; ionomycin 500 nM
  increase in [Ca2+]i in calcium free media with EGTA (words): low but significant increase in the intracellular calcium; also recorded: elicited only a small Ca2+ rise
Human spermatozoa [1]; ionomycin 500 nM, calcium free media with EGTA
  amplitude of the response from baseline: < 3 fold
Human spermatozoa [1]; ionomycin 500 nM, listed as Ionomycin
  increase in [Ca2+]i in calcium free media with EGTA (words): low but reproducible increase in [Ca2+]i

## CC(=O)[C@H]1CC[C@H]2[C@@H]3CCC4=CC(=O)CC[C@]4(C)[C@H]3CC[C@]12C [progesterone]
Human spermatozoa [1]; calcium free media, 5 μM EGTA
  increase in [Ca2+]i in calcium free media with EGTA (words): Neither, 1,25(OH)2D3 nor progesterone were able to induce an increase in intracellular calcium; also recorded: could not induce an increase in [Ca2+]i

## C/C=C(/C)C(=O)O[C@H]1C(C)=C2[C@H]([C@@H]1OC(=O)CCCCCCC)[C@@](C)(OC(C)=O)C[C@H](OC(=O)CCC)[C@@]1(O)[C@H]2OC(=O)[C@@]1(C)O [thapsigargin]
Human spermatozoa [1]; thapsigargin 4 μM
  effect on baseline calcium concentration: caused a slow increase in baseline calcium concentration
Human spermatozoa [1]; thapsigargin 4 μM, 1,25(OH)2D3 added 9 min later
  calcium response to 1,25(OH)2D3 after thapsigargin: unable to elicit a substantial calcium response; also recorded: diminished the effect of 1,25(OH)2D3
Human spermatozoa [1]; thapsigargin 4 μM, nine minutes after exposure
  stable plateau, higher than baseline calcium concentration: 3 fold
Human spermatozoa [1]; thapsigargin <1 μM
  calcium response to 1,25(OH)2D3 after thapsigargin: unable to abrogate the effect of 1,25(OH)2D3
